Among the data in patent US12448388B2, “PRMT5 inhibitors and uses thereof” (Gilead Sciences, Inc., priority 2023, dated 2025) are CC50 values, retold here.

SMILES strings stand for the structures. Read-outs that look alike come from different tables or passages of the source.

The experiment has as its system HCT116 MTAP-deleted cell lines. Nature of the experiment: Cell viability assay (CellTiter-Glo, 7 days), HCT116 MTAP-deleted. Type of experiment: cell-based. The conditions noted are these: Homo sapiens, HCT-116, HCT116 MTAP-deleted, class symbols, read-out: CC50. In outline:
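Dose-response, PRMT5 inhibitors from DMSO serial dilution, pre-spotted; cells seeded onto compound plates. 7 d, 37 °C/5% CO2/90% RH. Readout: CTG luminescence → CC50.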
Background: Cellular ATP, detected with luciferase, serves as a proxy for viable cell number.

What is called CC50 is the concentration at which the toxic effect on the cells reaches its halfway point.

On to `CC1(C)C[C@@H]2Oc3cc(OC(F)(F)F)ccc3[C@@H]2N(C(=O)c2cc3c(cn2)nc(N)c2cncn23)C1` (racemic) [Ff-262, Rac-(4-aminoimidazo[1,5-a]pyrido[3,4-e]pyrazin-8-yl)((4aS,9bS)-3,3-dimethyl-7-(trifluoromethoxy)-3,4,4a,9b-tetrahydrobenzofuro[3,2-b]pyridin-1(2H)-yl)methanone], for which, where the note is “cell viability”, the 50% cytotoxic concentration (CC50) was in the range of 0.1 to 1 µM.

Turning to `CCN(C(=O)c1cc2c(cn1)nc(N)c1cnc(C)n12)[C@@H]1COc2cc(C(F)(F)F)ccc21` [Ff-613, (S)-4-amino-N-ethyl-1-methyl-N-(6-(trifluoromethyl)-2,3-dihydrobenzofuran-3-yl)imidazo[1,5-a]pyrido[3,4-e]pyrazine-8-carboxamide], for the setting “cell viability assay”, the half-maximal cytotoxic concentration (CC50) is below 0.1 µM.

As to `C[C@H]1CN(C(=O)c2cc3c(cn2)nc(N)c2cncn23)[C@H]2c3cc(F)c(C(F)(F)F)cc3C[C@H]2O1` [Ff-247, (4-aminoimidazo[1,5-a]pyrido[3,4-e]pyrazin-8-yl)((2S,4aS,9aR)-6-fluoro-2-methyl-7-(trifluoromethyl)-2,3,9,9a-tetrahydroindeno[2,1-b][1,4]oxazin-4(4aH)-yl)methanone], where the note is “cell viability”, the cytotoxic concentration (CC50) is below 0.1 µM.

Turning to `Cc1ncc2c(N)nc3ccc(C(=O)N4C[C@H](C)O[C@@H]5Cc6cc(OC(F)(F)F)ccc6[C@@H]54)cc3n12` (single isomer, unassigned) [Ff-190], for the setting “cell viability”, the CC50 fell in the range of 0.1 to 1 µM.

Regarding `CC1(C)C[C@@H]2Oc3cc(C(F)(F)F)ccc3[C@@H]2N(C(=O)c2cc3c(cc2F)nc(N)c2cncn23)C1` (racemic) [Ff-257, Rac-(4-amino-7-fluoroimidazo[1,5-a]quinoxalin-8-yl)((4aR,9bR)-3,3-dimethyl-7-(trifluoromethyl)-3,4,4a,9b-tetrahydrobenzofuro[3,2-b]pyridin-1(2H)-yl)methanone], the CC50 (cell viability) was below 0.1 µM.

As to `C[C@H]1OC[C@@H](N(C)C(=O)c2ccc3nc(N)c4cncn4c3c2)c2ccc(C(F)(F)F)cc21` (single isomer, unassigned) [Ff-471], the CC50 (cell viability assay) was below 0.1 µM.

Turning to `CC(C)N(Cc1ccc(-c2cnn(-c3ccccn3)c2)cc1F)C(=O)c1cc2c(cc1F)nc(N)c1cncn12` [Ff-147, 4-amino-7-fluoro-N-(2-fluoro-4-(1-(pyridin-2-yl)-1H-pyrazol-4-yl)benzyl)-N-isopropylimidazo[1,5-a]quinoxaline-8-carboxamide], under “cell viability”, the half-maximal cytotoxic concentration (CC50) is below 0.1 µM.

Turning to `Nc1nc2cc(F)c(C(=O)N(Cc3ccc(C(F)(F)F)cn3)c3ccccc3)cc2n2cncc12` [Ff-277, 4-amino-7-fluoro-N-phenyl-N-((5-(trifluoromethyl)pyridin-2-yl)methyl)imidazo[1,5-a]quinoxaline-8-carboxamide], the CC50 (cell viability) was below 0.1 µM.

Regarding `Nc1nc2cc(F)c(C(=O)N(Cc3ccc(C(F)(F)F)cn3)C3CC(F)(F)C3)cc2n2cncc12` [Ff-415, 4-amino-N-(3,3-difluorocyclobutyl)-7-fluoro-N-[[5-(trifluoromethyl)-2-pyridyl]methyl]imidazo[1,5-a]quinoxaline-8-carboxamide], under “cell viability assay”, the 50% cytotoxic concentration (CC50) is below 0.1 µM.

As for `CC(C)N(Cc1ccc(Oc2ccccc2)cc1)C(=O)c1ccc2nc(N)c3cncn3c2c1` [Ff-57, 4-amino-N-isopropyl-N-(4-phenoxybenzyl)imidazo[1,5-a]quinoxaline-8-carboxamide], the cytotoxic concentration (CC50) (cell viability) lay within 0.1 to 1 µM.

Take `CN(C(=O)c1cc2c(cc1F)nc(N)c1cncn12)[C@@H]1COc2cc(-c3cnc(C(F)(F)F)s3)ccc21` [Ff-232, (S)-4-amino-7-fluoro-N-methyl-N-(6-(2-(trifluoromethyl)thiazol-5-yl)-2,3-dihydrobenzofuran-3-yl)imidazo[1,5-a]quinoxaline-8-carboxamide]: the CC50 (cell viability) is below 0.1 µM.

Take `CN(C(=O)c1cc2c(cc1F)nc(N)c1cncn12)[C@@H]1COc2cc(C3=CCOC3)ccc21` [Ff-483, (S)-4-amino-N-(6-(2,5-dihydrofuran-3-yl)-2,3-dihydrobenzofuran-3-yl)-7-fluoro-N-methylimidazo[1,5-a]quinoxaline-8-carboxamide]: the CC50 (cell viability assay) is below 0.1 µM.

Take `Cc1ncc2c(N)nc3cnc(C(=O)N4CCC[C@@H]5Oc6cc(C(F)(F)F)c(F)cc6[C@@H]54)cc3n12` [Ff-108, (4-amino-1-methylimidazo[1,5-a]pyrido[3,4-e]pyrazin-8-yl)((4aS,9bS)-8-fluoro-7-(trifluoromethyl)-3,4,4a,9b-tetrahydrobenzofuro[3,2-b]pyridin-1(2H)-yl)methanone]: the CC50 (cell viability) is below 0.1 µM.

Consider `CN(Cc1ccc([C@@H]2C[C@H]2c2ccn(C(F)F)n2)cc1F)C(=O)c1cc2c(cc1F)nc(N)c1cncn12` [Ff-429, 4-amino-N-[[4-[(1R,2R)-2-[1-(difluoromethyl)pyrazol-3-yl]cyclopropyl]-2-fluoro-phenyl]methyl]-7-fluoro-N-methyl-imidazo[1,5-a]quinoxaline-8-carboxamide], for which the CC50 (cell viability assay) was below 0.1 µM.

For `CN(C(=O)c1cc2c(cn1)nc(N)c1cncn12)[C@@H]1COc2cc(C34CC(C3)C4)ccc21` [Ff-449, 7-amino-N-[(3S)-6-(1-bicyclo[1.1.1]pentanyl)-2,3-dihydrobenzofuran-3-yl]-N-methyl-2,4,8,11-tetrazatricyclo[7.4.0.02,6]trideca-1(9),3,5,7,10,12-hexaene-12-carboxamide], for the setting “cell viability assay”, the CC50 is below 0.1 µM.

`Nc1nc2ccc(C(=O)N3CC[C@H]4C[C@@H]3c3ccc(C(F)(F)F)cc3O4)cc2n2cncc12` [Ff-510, (4-aminoimidazo[1,5-a]quinoxalin-8-yl)((2S,6R)-9-(trifluoromethyl)-3,4-dihydro-2H-2,6-methanobenzo[b][1,5]oxazocin-5(6H)-yl)methanone]: the CC50 (cell viability assay) was below 0.1 µM.

Turning to `CN(C(=O)c1cc2c(cc1F)nc(N)c1cncn12)[C@@H]1COc2c1ccc(C(F)(F)F)c2F` [Ff-354, (S)-4-amino-7-fluoro-N-(7-fluoro-6-(trifluoromethyl)-2,3-dihydrobenzofuran-3-yl)-N-methylimidazo[1,5-a]quinoxaline-8-carboxamide], the cytotoxic concentration (CC50) (cell viability) is below 0.1 µM.

With `CN(C(=O)c1ccc2nc(N)c3cncn3c2c1)[C@@H]1COc2cc(C#CC3(O)COC3)ccc21` [Ff-527, (S)-4-amino-N-(6-((3-hydroxyoxetan-3-yl)ethynyl)-2,3-dihydrobenzofuran-3-yl)-N-methylimidazo[1,5-a]quinoxaline-8-carboxamide], the cytotoxic concentration (CC50) (cell viability assay) was in the range of 0.1 to 1 µM.

For the molecule `Cc1ncn2c1c(N)nc1cnc(C(=O)N3CCC[C@@H]4Oc5c(ccc(C(F)(F)F)c5F)[C@@H]43)cc12` [Ff-119, (4-amino-3-methylimidazo[1,5-a]pyrido[3,4-e]pyrazin-8-yl)((4aS,9bS)-6-fluoro-7-(trifluoromethyl)-3,4,4a,9b-tetrahydrobenzofuro[3,2-b]pyridin-1(2H)-yl)methanone], the CC50 (cell viability) is below 0.1 µM.

On to `CN(C(=O)c1cc2c(cc1F)nc(N)c1cncn12)C1COc2cc3c(cc21)CCC3` (stereo not drawn) [Ff-459, 4-amino-7-fluoro-N-methyl-N-(3,5,6,7-tetrahydro-2H-indeno[5,6-b]furan-3-yl)imidazo[1,5-a]quinoxaline-8-carboxamide], for which, under “cell viability assay”, the 50% cytotoxic concentration (CC50) is below 0.1 µM.

On to `CN(C(=O)c1cc2c(cc1F)nc(N)c1cncn12)[C@@H]1COc2cc(C(C)(F)F)ccc21` [Ff-337, (S)-4-amino-N-(6-(1,1-difluoroethyl)-2,3-dihydrobenzofuran-3-yl)-7-fluoro-N-methylimidazo[1,5-a]quinoxaline-8-carboxamide], for which, under “cell viability”, the CC50 is below 0.1 µM.
